Where two headings read alike, the source gives them in different places.
How the values were obtained:
[1] = Tolerability (body weight) in 28 day OVCAR-3 xenograft study; format: in vivo; conditions: all concentrations dosed, 28 day treatment
[2] = Caco-2 permeation assay, bidirectional permeability; format: in vitro ADME; conditions: human, Caco-2, pH 7.4, 5 μM, Papp(B-A)/Papp(A-B)
Method in brief: (§1)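 Bidirectional A→B and B→A transport of 5 μM compound in HBSS (10 mM HEPES, pH 7.4), receiver containing 2% BSA, 2 h at 37 °C on 14-day monolayers. Papp from LC-MS/MS peak areas; efflux ratio Papp(B-A)/Papp(A-B), plus recovery. Lucifer Yellow leakage <1% required for monolayer acceptance.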

OVCAR-3 cells = experiment: In vitro anti-proliferative activity assay in cancer cell line OVCAR-3 (CellTiter-Glo, 4- or 7-day); format: cell-based; conditions: read-out: OVCAR-3 cellular antiproliferation assay IC50
OVCAR-3 xenografts = experiment: 28 day in vivo efficacy in OVCAR-3 xenografts; parameters: species or system female NOD SCID mice; conditions: oral
Procedure: Experiments were performed in female NOD SCID mice (GenPharmatech Co.). Animals were allowed to acclimate for 7 days before the study. The general health of the animals were evaluated by a veterinarian, and complete health checks were performed prior to the study. General procedures for animal care and housing were in accordance with the standard, Commission on Life Sciences, National Research Council, Standard Operating Procedures (SOPs) of Pharmaron, Inc. The mice were kept in laminar flow rooms at constant temperature and humidity with 3-5 mice in each cage. Animals were housed in polycarbonate cages which had dimensions of 300×180×150 mm^3 and in an environmentally monitored, well-ventilated room maintained at a temperature of 23±3° C. and a relative humidity of 40%-70%. Fluorescent lighting provided illumination approximately 12 hours per day. Animals had free access to irradiation sterilized dry granule food during the entire study period except for time periods specified by the protocol, as well as sterile drinking water in a bottle that was available ad libitum during the quarantine and study periods.
The OVCAR-3 (ATCC) tumor cell lines were maintained in vitro as a monolayer in RPMI 1640 medium supplemented with 20% heat inactivated FBS, at 37° C. in an atmosphere of 5% CO2 in air. The tumor cells were sub-cultured, not exceeding 4-5 passages, and cells growing in an exponential growth phase were harvested and counted for tumor inoculation. Each mouse was inoculated subcutaneously on the right flank with OVCAR-3 tumor cells (2×10^7) in 0.2 mL of RPMI-1640 with Matrigel (1:1) for model development.
Treatment was started when the mean tumor size reached approximately 150-200 mm^3, at which time the mice were randomized into treatment groups such that the average starting tumor size is similar for each treatment group. Animals were then treated with vehicle or indicated mg/kg (10-100) of compound at a given frequency (e.g., BID, QD, 4 days on treatment followed by 3 days off treatment) by oral gavage at a final dosing volume of 10 mL/kg.
The measurement of tumor size was conducted with a caliper and recorded twice per […] week. The tumor volume (TV) (mm^3) was estimated using the formula: TV=a×b^2/2, where “a” and “b” are long and short diameters of a tumor, respectively.
The TVs were used for calculation of the tumor growth inhibition and tumor growth delay. For the tumor growth inhibition (TGI), the value using the formula: […]
The “TVfinal” and “TVinitial” are the mean tumor volumes on the final day and initial day, respectively.
All statistical tests was conducted on GraphPad, and the level of significance was set at 5% or P<0.05. The group means and standard deviations were calculated for all measurement parameters. Two-way RM ANOVA followed by Tukeys post hoc comparisons of the means was applied among groups.
Additionally, after compound treatment, the animals were observed an additional 28 days without compound treatment.
The initial treatment period with Example 1 was 28 days, after which overall efficacy and tolerability were evaluated based on tumor volume and body weight changes observed during the treatment period (FIG. 2a and FIG. 2b).
The initial treatment period with Example 1 was 28 days, after which overall efficacy and tolerability were evaluated based on tumor volume and body weight changes observed during the treatment period (FIG. 3a and FIG. 3b).

[3] = In vivo pharmacokinetic evaluation in mouse; parameters: species or system female balb/c nude mice; conditions: for IV Clearance / Vd: 3 mg/kg IV; for Vd / Cmax / half-life: female, balb/c nude, plasma; for Vd: read-out: IV Vss; for Cmax / half-life: 10 mg/kg PO; for half-life: read-out: PO T1/2 (converted)
KIF18A = KIF18A (Homo sapiens (Human), UniProt Q8NI77); experiment: KIF18A Biochemical Assay (ATPase, ADP-Glo)
Chain of KIF18A (Q8NI77 1-367): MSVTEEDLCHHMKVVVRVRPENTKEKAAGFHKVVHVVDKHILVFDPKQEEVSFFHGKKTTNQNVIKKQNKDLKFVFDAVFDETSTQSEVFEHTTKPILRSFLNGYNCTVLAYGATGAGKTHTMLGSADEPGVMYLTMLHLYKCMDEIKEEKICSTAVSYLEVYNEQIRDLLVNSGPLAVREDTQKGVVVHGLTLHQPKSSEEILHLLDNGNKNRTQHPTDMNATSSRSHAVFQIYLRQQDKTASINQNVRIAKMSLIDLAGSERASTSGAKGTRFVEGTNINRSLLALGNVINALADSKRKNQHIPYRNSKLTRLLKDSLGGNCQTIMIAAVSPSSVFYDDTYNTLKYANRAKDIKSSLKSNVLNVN
Chain of KIF18A (P02550 whole entry partner): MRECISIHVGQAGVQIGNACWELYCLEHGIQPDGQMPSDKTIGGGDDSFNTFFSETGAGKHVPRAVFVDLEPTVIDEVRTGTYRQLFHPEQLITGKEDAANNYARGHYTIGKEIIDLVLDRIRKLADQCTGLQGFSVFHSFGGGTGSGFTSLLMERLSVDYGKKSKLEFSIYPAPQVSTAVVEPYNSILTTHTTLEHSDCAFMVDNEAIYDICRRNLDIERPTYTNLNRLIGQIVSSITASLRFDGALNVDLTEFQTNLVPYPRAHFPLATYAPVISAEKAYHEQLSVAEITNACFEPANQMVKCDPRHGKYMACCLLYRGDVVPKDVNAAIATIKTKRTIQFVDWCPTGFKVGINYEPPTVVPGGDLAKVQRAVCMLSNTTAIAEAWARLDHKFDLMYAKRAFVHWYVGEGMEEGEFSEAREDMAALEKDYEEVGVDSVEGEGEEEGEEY
Chain of KIF18A (P02554 whole entry partner): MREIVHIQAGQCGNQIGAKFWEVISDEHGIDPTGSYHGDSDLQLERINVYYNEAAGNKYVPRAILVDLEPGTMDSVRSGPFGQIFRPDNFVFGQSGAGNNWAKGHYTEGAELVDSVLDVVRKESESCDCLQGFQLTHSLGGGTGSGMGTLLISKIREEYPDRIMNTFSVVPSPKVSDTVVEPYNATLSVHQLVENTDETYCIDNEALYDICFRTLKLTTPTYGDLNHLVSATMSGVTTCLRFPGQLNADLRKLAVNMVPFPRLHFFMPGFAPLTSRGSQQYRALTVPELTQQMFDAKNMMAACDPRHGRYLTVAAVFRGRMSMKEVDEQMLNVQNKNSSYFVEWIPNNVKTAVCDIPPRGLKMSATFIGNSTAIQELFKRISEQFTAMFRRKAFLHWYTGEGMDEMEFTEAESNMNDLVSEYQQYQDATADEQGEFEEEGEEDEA

[4] = tested on: human megakaryocyte (CFU-MK) progenitors from human bone marrow mononuclear cells; experiment: Human megakaryocyte progenitor colony formation assay (CFU-MK); format: cell-based; conditions: 336 h, 14 days culture, adjusted for binding to assay buffer, read-out: Free-fraction adjusted CFU-MK IC50
Caco-2 cell monolayers = experiment: Caco-2 permeation assay, bidirectional permeability; format: in vitro ADME; conditions: 5 μM, 2 h, Papp(B-A)/Papp(A-B)
Method in brief: as §1

[5] = Homo sapiens, OVCAR-3, 96 h, 4-day assay
[6] = day 28, 100 mg/kg once daily for 4 days followed by 3 days of no dosing

Question: With Cc1cc(NC(=O)c2ccc(NS(=O)(=O)CCO)cc2N2CC[Si](C)(C)CC2)nc(N2CCC(F)(F)CC2)n1 [Example 9, N-[2-(4,4-difluoropiperidin-1-yl)-6-methylpyrimidin-4-yl]-2-(4,4-dimethyl-1,4-azasilinan-1-yl)-4-(2-hydroxyethanesulfonamido)benzamide] as the compound, how does the “Tolerability based on body weight” value [1] read?
Answer: Its value is “well tolerated”.

Question: And the efflux ratio at 2 h, 5 μM [2]?
Answer: The efflux ratio at 2 h, 5 μM was under 10.

Question: And the IC50 (OVCAR-3 cells; [5])?
Answer: Its IC50 is under 100 nM.

Question: And the “% T/C” value (OVCAR-3 xenografts; day 28, 100 mg/kg once daily)?
Answer: Its value is −4%.

Question: What about the “% TGI” value (OVCAR-3 xenografts; day 28, 100 mg/kg once daily) of the same compound?
Answer: Its value is 104%.

Question: What about the “IV Clearance” value [3] of the same compound?
Answer: Its value is 1.7 mL/ming/kg.

Question: And the Vd [3]?
Answer: Its Vd is 2.5 L/kg.

Question: What about the Cmax [3] of the same compound?
Answer: Its Cmax is 3100 ng/mL.

Question: And the half-life [3]?
Answer: The half-life was 14.5 h.

Question: And the IC50 (KIF18A)?
Answer: Its IC50 is 100 to 500 nM.

Question: Which results are given for Cc1cc(NC(=O)c2ccc(NS(=O)(=O)CCO)cc2N2CC[Si](C)(C)CC2)nc(C2CCC(F)(F)CC2)n1 [Example 1, N-(2-(4,4-difluorocyclohexyl)-6-methylpyrimidin-4-yl)-2-(4,4-dimethyl-1,4-azasilinan-1-yl)-4-((2-hydroxyethyl)sulfonamido)benzamide]?
Answer: Tolerability based on body weight [1]: well tolerated; efflux ratio at 2 h, 5 μM [2]: < 10; IC50 [4]: 17 nM; IC50 (OVCAR-3 cells; [5]): < 100 nM; % T/C (OVCAR-3 xenografts; [6]): −2%; % TGI (OVCAR-3 xenografts; [6]): 102%; IV Clearance [3]: 3.6 mL/ming/kg; Vd [3]: 2.7 L/kg; Cmax [3]: 2900 ng/mL; half-life [3]: 8.9 h; IC50 (KIF18A): < 100 nM

Question: Which results are given for Cc1cc(NC(=O)c2ccc(NS(=O)(=O)CCO)cc2N2CC[C@]3(C(F)F)C[C@@H]3C2)nc(N2CCC(F)(F)CC2)n1 [Example 86]?
Answer: Caco-2 assay efflux ratio (Caco-2 cell monolayers): ** (“**” means efflux ratio of <10); IC50 (OVCAR-3 cells; 7-day assay): 100 to 500 nM; IC50 (KIF18A): < 100 nM
